Patent US20260256782A1, “COMBINATION THERAPIES COMPRISING MYC MODULATION” (FLAGSHIP PIONEERING INNOVATIONS V, INC., priority 2022, published 2026)
Like-named read-outs stand apart in the source and are kept apart here.

How the values were obtained:
[1] = test system: Hep 3B cells; assay: Cell viability (Celltiter-Glo), lenvatinib in combination with bicistronic ZF9-MQ1_ZF3-KRAB DS; Bliss synergy (SynergyFinder 2.0); assay type: cell-based; conditions: Homo sapiens, Hep3B, 72 h
Experimental: (§1) […] Cell viability (Celltiter-Glo) levels were assessed 72 hours after treatment. Bliss synergy scores calculated using SyngeryFinder 2.0 were used to determine combinatorial effect.
(§2) Bliss synergy scores calculated using SynergyFinder 2.0 were used to determine combinatorial effect. The degree of combination synergy, or antagonism, is quantified by comparing the observed drug combination response against the expected response, calculated using a reference model that assumes no interaction between drugs. The Bliss independence model assumes a stochastic process in which two drugs elicit their effects independently, and the expected combination effect can be calculated based on the probability of independent events. […] Bliss synergy scores plus lenvatinib for Hep 3B and SK-HEP-1 were 5.37 and 12.77.

[2] = test system: SK-HEP-1 cells; assay: as above; assay type: cell-based; conditions: Homo sapiens, SK-HEP1, 72 h
Experimental: as §1, §2

[3] = test system: Myc protein in PC9 cells; assay: Myc protein by Western blot, osimertinib and/or MR-32054; assay type: cell-based; conditions: PC9, 48 h, 1 μM osimertinib and/or 0.5 μg/ml MR-32054 in SSOP LNPs, normalized to untreated
[4] = test system: MYC protein in osimertinib-resistant cell lines derived from H1975 (OsimR_1.25 and OsimR_1.5); assay: MYC protein level by JESS system; assay type: cell-based; conditions: osimertinib resistant H1975 cells, 48 hours, 1 μM osimertinib or 1 μg/ml MR-32380 in SSOP
Text: (§3) MYC protein levels were assess using a JESS system (Protein Simple). A 12-230 kDa pre-filled plate (Protein Simple) was loaded with protein lysate, antibody mix (MYC: Cell signaling technologies, actin: Cell signaling technologies, Goat anti-rabbit of mouse secondary antibodies conjugated with HRP, or fluorescent marker), and luminol master mix. The loaded plate and capillary cartridge (Protein Simple) were then transferred to the JESS system (Protein Simple) for imaging and quantification following manufacturer's protocol.

[5] = test system: MYC protein in H1975 parental cells; assay: MYC protein level by JESS system; assay type: cell-based; conditions: 48 hours, 1 μM osimertinib or 1 μg/ml MR-32380 in SSOP
Text: as §3

[6] = test system: subcutaneous H1975 tumors with sensitizing EGFR mutations (L858R, T790M); assay: H1975 subcutaneous tumor model, tumor growth; parameters: species or system mice; conditions: mouse, in vivo
Experimental: Tumor growth was measured throughout the experiment (FIG. 15).
The length and width of tumors were measured three times weekly. Tumor volumes were calculated as width^2×length/2. Body weights were measured daily.

[7] = test system: osimertinib-resistant cell lines derived from H1975 (OsimR_1.25 and OsimR_1.5); assay: Cell viability (CellTiter Glo) after osimertinib or MR-32380 in osimertinib-resistant lines; assay type: cell-based; conditions: OsimR_1.25 and OsimR_1.5, 72 hours, increasing doses
Experimental: Cell viability was assessed using the CellTiter Glo (Promega) assay used according to manufacturer's instructions.

[8] = test system: PC9 cells; assay: Cell viability (CellTiter Glo), osimertinib with control or MR-32054; assay type: cell-based; conditions: Homo sapiens, PC-9, 72 h; read-out: IC50, reduction of viability
Text: (§4) The CellTiter Glo (Promega) assay was used according to manufacturer's instructions to assess cell viability. […] Odyssey CLx Imaging System (LICOR) using near-infrared (NIR) fluorescence was used to capture and quantify the protein images.

[9] = test system: H1975 cells; assay: cells; conditions: Homo sapiens, NCI-H1975, 72 h, read-out: IC50, growth inhibition (cell viability)
Text: as §4

`COc1cc2nccc(Oc3ccc(NC(=O)NC4CC4)c(Cl)c3)c2cc1C(N)=O` [lenvatinib] showed an IC50 ([1]; ZF9-MQ1_ZF3-KRAB concentration 0 μg/mL, cell viability 72 hours after treatment, read-out: Lenvatinib IC50) of 533 nM, an IC50 ([1]; ZF9-MQ1_ZF3-KRAB concentration 0.06 μg/mL, cell viability 72 hours after treatment, read-out: Lenvatinib IC50) of 309 nM and an IC50 ([1]; ZF9-MQ1_ZF3-KRAB concentration 0.6 μg/mL, cell viability 72 hours after treatment, read-out: Lenvatinib IC50) of 23 nM. It also gave an IC50 ([1]; ZF9-MQ1_ZF3-KRAB concentration 1.0 μg/mL, cell viability 72 hours after treatment, read-out: Lenvatinib IC50) of 48 nM, an IC50 ([1]; lenvatinib without DS, read-out: half maximal inhibitory concentration (IC50) of lenvatinib) of 533 nM and an IC50 ([2]; SK-HEP-1, 72 hours, lenvatinib without DS, read-out: IC50 of lenvatinib) of 17700 nM. For the same compound, the IC50 ([2]; SK-HEP-1, ZF9-MQ1_ZF3-KRAB concentration 0 μg/mL, cell viability 72 hours after treatment, read-out: Lenvatinib IC50) was 17700 nM, the IC50 ([2]; SK-HEP-1, ZF9-MQ1_ZF3-KRAB concentration 0.1 μg/mL, cell viability 72 hours after treatment, read-out: Lenvatinib IC50) was 13300 nM and the IC50 ([2]; SK-HEP-1, ZF9-MQ1_ZF3-KRAB concentration 0.6 μg/mL, cell viability 72 hours after treatment, read-out: Lenvatinib IC50) was 3860 nM. For the same compound, the IC50 ([2]; SK-HEP-1, ZF9-MQ1_ZF3-KRAB concentration 1.0 μg/mL, cell viability 72 hours after treatment, read-out: Lenvatinib IC50) was 1910 nM.

`C=CC(=O)Nc1cc(Nc2nccc(-c3cn(C)c4ccccc34)n2)c(OC)cc1N(C)CCN(C)C` [osimertinib] was tested, and the “reduction of Myc protein levels” value [3] was 80%, the MYC protein level [4] was “not affected” and the MYC protein level [5] was “decreased MYC protein level”. For the same compound, the “tumor growth (tumor volume)” value [6] was “inhibit tumor growth”, the “cell viability (sensitivity)” value [7] was “resistant to osimertinib” and the IC50 [8] was 420 nM.

Work on `CC(=O)Nc1cccc(-n2c(=O)n(C3CC3)c(=O)c3c(Nc4ccc(I)cc4F)n(C)c(=O)c(C)c32)c1` [trametinib] yielded an IC50 [9] of 140 nM.
